In the supplement of paper PMC4858399:

Assays:
Details in all cases: exposure time 48 h
[1] = tested on: Caenorhabditis elegans N2; assay: AC50 for larval growth inhibition (Hill fit); higher = less potent
Method in brief: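 After 48 h at 20°C in K-medium with killed OP50, 1% DMSO and 0.5–200 µM chemical, synchronised C. elegans N2 L1 larvae (50 per well, 96-well plates) were sized individually as extinction on a COPAS Biosort. These values were log-transformed and averaged per well, and wells with fewer than 10 worms were excluded. The AC50 was derived from a constrained Hill fit by weighted genetic-algorithm regression, and out-of-range values are censored.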

[2] = tested on: Caenorhabditis elegans N2; assay: lowest effective concentration for larval growth inhibition (size below effect threshold); higher = less potent
Method in brief: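 Worm size was taken as per-worm extinction on the Biosort, log-transformed and turned into well means. The larvae (C. elegans N2, L1 stage, 50 per 96-well) had spent 48 h at 20°C in K-medium with killed bacteria, 1% DMSO and 0.5, 1, 5, 10, 50, 100 or 200 µM chemical. The lowest effective concentration marks the first dose where the plate-adjusted mean size drops under a cutoff and remains under it at every higher dose; the cutoff is 5.665.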

[3] = tested on: Caenorhabditis elegans N2; assay: mean nematode size ln(EXT) after 48 h, plate-adjusted (DMSO control set to 6) (ln(EXT), control-adjusted); higher = larger nematodes / less growth inhibition
Method in brief: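 C. elegans N2 larvae, synchronised at L1, grew for 48 h at 20°C in K-medium with killed OP50, 1% DMSO and 0.5–200 µM chemical. Mean size per well was derived from natural-logged Biosort extinction after a growth model removed debris. Adjustment across plates involved subtracting the vehicle control mean and adding 6.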

Compound | AC50 for larval growth inhibition [1] | lowest effective concentration [2] | mean nematode size ln(EXT) (ln) ([3]; 0.5 µM) | mean nematode size ln(EXT) (ln) ([3]; 1 µM) | mean nematode size ln(EXT) (ln) ([3]; 5 µM) | mean nematode size ln(EXT) (ln) ([3]; 10 µM) | mean nematode size ln(EXT) (ln) ([3]; 50 µM) | mean nematode size ln(EXT) (ln) ([3]; 100 µM) | mean nematode size ln(EXT) (ln) ([3]; 200 µM)
CC(C)(C)c1cc(C(C)(C)C)c(O)c(C(C)(C)C)c1 [2,4,6-Tris(tert-butyl)phenol] | > 200 µM | 50 µM | 5.84 | 5.9 | 5.94 | 5.7 | 5.58 | 5.4 | 4.67
Cc1c(COC(=O)[C@@H]2[C@H](/C=C(\Cl)C(F)(F)F)C2(C)C)cccc1-c1ccccc1 (racemic) [Bifenthrin] | > 200 µM | 200 µM | 5.92 | 5.85 | 5.84 | 5.96 | 5.9 | 5.78 | 5.37
C=C(C)C(=O)[O][Sn]([CH2]CCC)([CH2]CCC)[CH2]CCC [Stannane, tributyl(2-methyl-1-oxo-2-propenyl)oxy-] | 0.511 µM | ≤ 0.5 µM | 4.73 | 4.66 | 3.93 | 3.57 | 3.8 | 3.85 | 3.56
CCCN(CCOc1c(Cl)cc(Cl)cc1Cl)C(=O)n1ccnc1 [Prochloraz] | 153 µM | 200 µM | 6.11 | 6.19 | 6.19 | 6.29 | 5.98 | 5.98 | 3.41
Nc1ccc(N=Nc2ccccc2)cc1 [4-Aminoazobenzene] | 31.4 µM | 5 µM | 5.63 | 5.75 | 5.62 | 5.49 | 4.06 | 3.92 | 3.23
O=C(O)C(F)(F)C(F)(F)C(F)(F)C(F)(F)C(F)(F)C(F)(F)F [Perfluoroheptanoic acid] | > 200 µM | 100 µM | 5.87 | 5.85 | 5.88 | 5.83 | 5.74 | 5.42 | 5.57
NC(=O)N(O)[C@@H]1COc2cc(OCc3ccccc3)ccc21 | > 200 µM | 200 µM | 5.86 | 5.87 | 5.82 | 5.77 | 5.84 | 5.81 | 5.59
CC(=O)S[C@H](C(=O)N[C@H]1Cc2ccccc2[C@H]2CCC[C@@H](C(=O)O)N2C1=O)C(C)C [Ilepatril] | > 200 µM | 200 µM | 5.89 | 5.83 | 5.76 | 5.88 | 5.84 | 5.8 | 5.58
CNC(=O)Oc1cccc2c1OC(C)(C)C2 [Carbofuran] | 198 µM | 100 µM | 5.92 | 5.92 | 5.84 | 5.89 | 5.75 | 5.39 | 4.54
CC[C@@H]1C[C@H](N(Cc2cc(C(F)(F)F)cc(C(F)(F)F)c2)C(C)=O)c2cc(C(F)(F)F)ccc2N1C(=O)OC(C)C | > 200 µM | 200 µM | 5.74 | 6.01 | 5.87 | 5.9 | 5.83 | 5.79 | 5.52
O=C(O)C(F)(F)C(F)(F)C(F)(F)C(F)(F)C(F)(F)C(F)(F)C(F)(F)C(F)(F)C(F)(F)F [Perfluorodecanoic acid] | 14.6 µM | 5 µM | 5.85 | 5.87 | 5.14 | 4.6 | 4.06 | 3.96 | 3.16
COc1ccc(C(=O)Nc2nc3ccccc3c(NCc3ccccc3)c2C#N)cc1 [N-[4-(benzylamino)-3-cyanoquinolin-2-yl]-4-methoxybenzamide] | > 200 µM | 1 µM | 5.68 | 5.65 | 5.49 | 5.41 | 5.18 | 4.88 | 4.46
O=C1c2ccccc2C(=O)N1SC(Cl)(Cl)Cl [Folpet] | > 200 µM | 50 µM | 5.89 | 5.98 | 5.57 | 5.84 | 5.53 | 5.55 | 5.09
CC(C)(C)C(O)(CCc1ccc(Cl)cc1)Cn1cncn1 (centres undefined) [Tebuconazole] | 144 µM | 50 µM | 5.91 | 5.93 | 5.86 | 5.81 | 5.26 | 5.21 | 4.07
CCCCN(CCCC)SN(C)C(=O)Oc1cccc2c1OC(C)(C)C2 [Carbosulfan] | 60.2 µM | 1 µM | 5.76 | 5.51 | 5.04 | 4.86 | 5.15 | 4.44 | 4
CCCCCCCCCCCCc1ccc(S(=O)(=O)O)cc1 [4-Dodecylbenzenesulfonic acid] | 27.5 µM | ≤ 0.5 µM | 5.45 | 5.6 | 5.55 | 5.63 | 4.03 | 3.77 | 3.53
CC1(C)C(C=C(Cl)Cl)C1C(=O)OCc1cccc(Oc2ccccc2)c1 (centres undefined) [Permethrin] | 11.2 µM | 10 µM | 5.91 | 5.9 | 5.67 | 5.56 | 5.41 | 4.98 | 5.24
NC(=O)c1nc(-c2cccc(-c3cc(F)ccc3OCC(F)(F)C(F)(F)F)c2)n[nH]1 | 50.6 µM | 50 µM | 5.73 | 5.81 | 5.71 | 5.78 | 5.53 | 4.97 | 5.09
COC(=O)N(C(=O)N1CO[C@@]2(C(=O)OC)Cc3cc(Cl)ccc3C2=N1)c1ccc(OC(F)(F)F)cc1 [Indoxacarb] | 6.41 µM | 5 µM | 6 | 5.91 | 5.25 | 4.02 | 3.6 | 3.56 | 3.48
CCOP(=O)(NC(C)C)Oc1ccc(SC)c(C)c1 (centres undefined) [Fenamiphos] | 90.9 µM | ≤ 0.5 µM | 5.54 | 5.56 | 5.32 | 5.31 | 4.93 | 4.49 | 4.15
C=C(C)[C@H]1Cc2c(ccc3c2O[C@@H]2COc4cc(OC)c(OC)cc4[C@@H]2C3=O)O1 [Rotenone] | 181 µM | 200 µM | 5.16 | 6.51 | 6.12 | 6.26 | 6.39 | 6.45 | 4.07
